Reference: ChEMBL document CHEMBL3885861, “Open TG-GATES”

Organism: Rattus norvegicus
Test: Open TG-GATES - Regimen: Daily Repeat
Assay type: toxicity, organism-based, Sprague-Dawley
Design: regimen Daily Repeat, gender Male, age 6 weeks
Details: in vivo, po, route gavage; for APTT / Bas / Eos / Fbg / Hb / Ht / Lym / MCH / MCHC / MCV / Mono / Neu / PT / Plat / RBC / Ret / WBC: tissue Blood; for KIDNEY_L / KIDNEY_R / KIDNEY_TOTAL: tissue Kidney; for LIVER: tissue Liver; for A/G / ALP / ALT / AST / BUN / CRE / Ca / Cl / DBIL / GLC / IP / K / LDH / Na / PL / RALB / TBIL / TC / TG / TP / gamma-GTP: tissue Plasma
[1] = 0 mg/kg, 72 h, dose level Control, time 3 day
[2] = 0 mg/kg, […], dose level Control, time 7 day
[3] = 0 mg/kg, […], dose level Control, time 14 day
[4] = 0 mg/kg, […], dose level Control, time 28 day
[5] = 75 mg/kg, 72 h, dose level Low, time 3 day
[6] = 75 mg/kg, […], dose level Low, time 7 day
[7] = 75 mg/kg, […], dose level Low, time 14 day
[8] = 75 mg/kg, […], dose level Low, time 28 day

CN(C/C=C/C#CC(C)(C)C)Cc1cccc2ccccc12 [TERBINAFINE]
TERMINAL_BW [1]: 243.5 g
APTT [1]: 18.4 s
Bas [1]: 0.8%
Eos [1]: 1%
Fbg [1]: 227.8 mg/dL
Hb [1]: 13.5 g/dL
Ht [1]: 39.9%
Lym [1]: 76%
MCH [1]: 21.5 pg
MCHC [1]: 33.8%
MCV [1]: 63.4 fL
Mono [1]: 3%
Neu [1]: 19.2%
PT [1]: 11.8 s
Plat [1]: 117.2 x10_4/uL
RBC [1]: 629 x10_4/ul
Ret [1]: 5.9%
WBC [1]: 104.3 x10_2/uL
KIDNEY_L [1]: 1.1 g
KIDNEY_R [1]: 1.1 g
KIDNEY_TOTAL [1]: 2.2 g
LIVER [1]: 11.8 g
A/G [1]: 1.6
ALP [1]: 804.6 IU/L
ALT [1]: 34.2 IU/L
AST [1]: 66.8 IU/L
BUN [1]: 14.4 mg/dL
CRE [1]: 0.4 mg/dL
Ca [1]: 10.8 mg/dL
Cl [1]: 103.4 meq/L
DBIL [1]: 0.098 mg/dL
GLC [1]: 192.8 mg/dL
IP [1]: 7.3 mg/dL
K [1]: 4.2 meq/L
LDH [1]: 191.8 IU/L
Na [1]: 141.6 meq/L
PL [1]: 147.6 mg/dL
RALB [1]: 3.5 g/dL
TBIL [1]: 0.2 mg/dL
TC [1]: 74.6 mg/dL
TG [1]: 99.2 mg/dL
TP [1]: 5.6 g/dL
gamma-GTP [1]: 2 IU/L
TERMINAL_BW [2]: 279 g
TERMINAL_BW [3]: 323.8 g
TERMINAL_BW [4]: 389.8 g
APTT [2]: 18.7 s
Bas [2]: 1%
Eos [2]: 1%
Fbg [2]: 236 mg/dL
Hb [2]: 13.9 g/dL
Ht [2]: 41%
Lym [2]: 79.6%
MCH [2]: 20.8 pg
MCHC [2]: 33.8%
MCV [2]: 61.4 fL
Mono [2]: 2.8%
Neu [2]: 15.6%
PT [2]: 11.7 s
Plat [2]: 121.9 x10_4/uL
RBC [2]: 669.2 x10_4/ul
Ret [2]: 5.2%
WBC [2]: 118.9 x10_2/uL
APTT [3]: 19.6 s
Bas [3]: 1%
Eos [3]: 0.8%
Fbg [3]: 220.4 mg/dL
Hb [3]: 14.7 g/dL
Ht [3]: 43.1%
Lym [3]: 84.2%
MCH [3]: 20.1 pg
MCHC [3]: 34.1%
MCV [3]: 59.1 fL
Mono [3]: 2.2%
Neu [3]: 12.2%
PT [3]: 11.5 s
Plat [3]: 109.6 x10_4/uL
RBC [3]: 729.8 x10_4/ul
Ret [3]: 4%
WBC [3]: 106.5 x10_2/uL
APTT [4]: 20 s
Bas [4]: 1%
Eos [4]: 1.2%
Fbg [4]: 230.6 mg/dL
Hb [4]: 15.5 g/dL
Ht [4]: 43.8%
Lym [4]: 80%
MCH [4]: 20.4 pg
MCHC [4]: 35.4%
MCV [4]: 57.8 fL
Mono [4]: 2.4%
Neu [4]: 15.8%
PT [4]: 12 s
Plat [4]: 116.1 x10_4/uL
RBC [4]: 757.6 x10_4/ul
Ret [4]: 2.5%
WBC [4]: 135.2 x10_2/uL
KIDNEY_L [2]: 1.2 g
KIDNEY_R [2]: 1.2 g
KIDNEY_TOTAL [2]: 2.5 g
KIDNEY_L [3]: 1.2 g
KIDNEY_R [3]: 1.2 g
KIDNEY_TOTAL [3]: 2.5 g
KIDNEY_L [4]: 1.4 g
KIDNEY_R [4]: 1.4 g
KIDNEY_TOTAL [4]: 2.8 g
LIVER [2]: 13.3 g
LIVER [3]: 13.3 g
LIVER [4]: 15.6 g
A/G [2]: 1.5
ALP [2]: 874.6 IU/L
ALT [2]: 33.6 IU/L
AST [2]: 68.2 IU/L
BUN [2]: 15.4 mg/dL
CRE [2]: 0.4 mg/dL
Ca [2]: 10.7 mg/dL
Cl [2]: 102.8 meq/L
DBIL [2]: 0.094 mg/dL
GLC [2]: 201.8 mg/dL
IP [2]: 7.8 mg/dL
K [2]: 4.5 meq/L
LDH [2]: 212.4 IU/L
Na [2]: 141.8 meq/L
PL [2]: 140.2 mg/dL
RALB [2]: 3.5 g/dL
TBIL [2]: 0.1 mg/dL
TC [2]: 69.4 mg/dL
TG [2]: 95.8 mg/dL
TP [2]: 5.8 g/dL
gamma-GTP [2]: 0.8 IU/L
A/G [3]: 1.4
ALP [3]: 734.4 IU/L
ALT [3]: 34.8 IU/L
AST [3]: 67.2 IU/L
BUN [3]: 16 mg/dL
CRE [3]: 0.4 mg/dL
Ca [3]: 10.6 mg/dL
Cl [3]: 105 meq/L
DBIL [3]: 0.1 mg/dL
GLC [3]: 208.4 mg/dL
IP [3]: 7.2 mg/dL
K [3]: 3.7 meq/L
LDH [3]: 188.8 IU/L
Na [3]: 142.8 meq/L
PL [3]: 132.8 mg/dL
RALB [3]: 3.4 g/dL
TBIL [3]: 0.2 mg/dL
TC [3]: 63.6 mg/dL
TG [3]: 108 mg/dL
TP [3]: 5.8 g/dL
gamma-GTP [3]: 1 IU/L
A/G [4]: 1.3
ALP [4]: 719.6 IU/L
ALT [4]: 33.8 IU/L
AST [4]: 65.8 IU/L
BUN [4]: 17.6 mg/dL
CRE [4]: 0.5 mg/dL
Ca [4]: 10.5 mg/dL
Cl [4]: 104.4 meq/L
DBIL [4]: 0.092 mg/dL
GLC [4]: 226.4 mg/dL
IP [4]: 6.9 mg/dL
K [4]: 4 meq/L
LDH [4]: 224.4 IU/L
Na [4]: 141.8 meq/L
PL [4]: 129.2 mg/dL
RALB [4]: 3.5 g/dL
TBIL [4]: 0.2 mg/dL
TC [4]: 62.6 mg/dL
TG [4]: 110.2 mg/dL
TP [4]: 6 g/dL
gamma-GTP [4]: 1.4 IU/L
TERMINAL_BW [5]: 243.4 g
APTT [5]: 18.6 s
Bas [5]: 0.8%
Eos [5]: 0.8%
Fbg [5]: 233.4 mg/dL
Hb [5]: 13.4 g/dL
Ht [5]: 39.5%
Lym [5]: 80.4%
MCH [5]: 21.7 pg
MCHC [5]: 33.7%
MCV [5]: 64.3 fL
Mono [5]: 2.8%
Neu [5]: 15.4%
PT [5]: 11.5 s
Plat [5]: 121.6 x10_4/uL
RBC [5]: 615.4 x10_4/ul
Ret [5]: 6.2%
WBC [5]: 111.7 x10_2/uL
KIDNEY_L [5]: 1.1 g
KIDNEY_R [5]: 1.1 g
KIDNEY_TOTAL [5]: 2.1 g
LIVER [5]: 12.1 g
A/G [5]: 1.7
ALP [5]: 854 IU/L
ALT [5]: 35.2 IU/L
AST [5]: 67.2 IU/L
BUN [5]: 14.2 mg/dL
CRE [5]: 0.4 mg/dL
Ca [5]: 10.8 mg/dL
Cl [5]: 103.6 meq/L
DBIL [5]: 0.1 mg/dL
GLC [5]: 190.8 mg/dL
IP [5]: 7.3 mg/dL
K [5]: 4.2 meq/L
LDH [5]: 214.6 IU/L
Na [5]: 141.2 meq/L
PL [5]: 156 mg/dL
RALB [5]: 3.6 g/dL
TBIL [5]: 0.2 mg/dL
TC [5]: 80.6 mg/dL
TG [5]: 113.4 mg/dL
TP [5]: 5.7 g/dL
gamma-GTP [5]: 2 IU/L
TERMINAL_BW [6]: 274.5 g
TERMINAL_BW [7]: 333.7 g
TERMINAL_BW [8]: 399 g
APTT [6]: 19.2 s
Bas [6]: 1%
Eos [6]: 0.6%
Fbg [6]: 226 mg/dL
Hb [6]: 13.9 g/dL
Ht [6]: 40.6%
Lym [6]: 83%
MCH [6]: 21.7 pg
MCHC [6]: 34.3%
MCV [6]: 63.5 fL
Mono [6]: 2.4%
Neu [6]: 13.2%
PT [6]: 11.9 s
Plat [6]: 130.9 x10_4/uL
RBC [6]: 640.8 x10_4/ul
Ret [6]: 5.2%
WBC [6]: 112.5 x10_2/uL
APTT [7]: 20.1 s
Bas [7]: 1%
Eos [7]: 1%
Fbg [7]: 219.4 mg/dL
Hb [7]: 14.6 g/dL
Ht [7]: 42.7%
Lym [7]: 79.8%
MCH [7]: 20.6 pg
MCHC [7]: 34%
MCV [7]: 60.4 fL
Mono [7]: 2.6%
Neu [7]: 15.4%
PT [7]: 11.3 s
Plat [7]: 129 x10_4/uL
RBC [7]: 707.4 x10_4/ul
Ret [7]: 4%
WBC [7]: 118.9 x10_2/uL
APTT [8]: 21.8 s
Bas [8]: 0.8%
Eos [8]: 1%
Fbg [8]: 210.8 mg/dL
Hb [8]: 15 g/dL
Ht [8]: 42.9%
Lym [8]: 80.6%
MCH [8]: 19.7 pg
MCHC [8]: 34.8%
MCV [8]: 56.7 fL
Mono [8]: 2.2%
Neu [8]: 15%
PT [8]: 12.2 s
Plat [8]: 114.8 x10_4/uL
RBC [8]: 758.2 x10_4/ul
Ret [8]: 2.7%
WBC [8]: 135.9 x10_2/uL
KIDNEY_L [6]: 1.2 g
KIDNEY_R [6]: 1.2 g
KIDNEY_TOTAL [6]: 2.4 g
KIDNEY_L [7]: 1.3 g
KIDNEY_R [7]: 1.3 g
KIDNEY_TOTAL [7]: 2.5 g
KIDNEY_L [8]: 1.5 g
KIDNEY_R [8]: 1.6 g
KIDNEY_TOTAL [8]: 3.1 g
LIVER [6]: 13.1 g
LIVER [7]: 15.1 g
LIVER [8]: 17.5 g
A/G [6]: 1.6
ALP [6]: 944.6 IU/L
ALT [6]: 36.6 IU/L
AST [6]: 72.8 IU/L
BUN [6]: 16.2 mg/dL
CRE [6]: 0.4 mg/dL
Ca [6]: 10.6 mg/dL
Cl [6]: 103.8 meq/L
DBIL [6]: 0.1 mg/dL
GLC [6]: 188.2 mg/dL
IP [6]: 7.1 mg/dL
K [6]: 4.4 meq/L
LDH [6]: 217.6 IU/L
Na [6]: 142 meq/L
PL [6]: 152.8 mg/dL
RALB [6]: 3.6 g/dL
TBIL [6]: 0.2 mg/dL
TC [6]: 76.2 mg/dL
TG [6]: 112.8 mg/dL
TP [6]: 5.8 g/dL
gamma-GTP [6]: 1 IU/L
A/G [7]: 1.5
ALP [7]: 875.8 IU/L
ALT [7]: 36.8 IU/L
AST [7]: 71.4 IU/L
BUN [7]: 17.6 mg/dL
CRE [7]: 0.4 mg/dL
Ca [7]: 10.8 mg/dL
Cl [7]: 103.8 meq/L
DBIL [7]: 0.1 mg/dL
GLC [7]: 206.6 mg/dL
IP [7]: 7.2 mg/dL
K [7]: 3.8 meq/L
LDH [7]: 168.2 IU/L
Na [7]: 142.4 meq/L
PL [7]: 140.4 mg/dL
RALB [7]: 3.5 g/dL
TBIL [7]: 0.2 mg/dL
TC [7]: 65.4 mg/dL
TG [7]: 123 mg/dL
TP [7]: 5.9 g/dL
gamma-GTP [7]: 0.8 IU/L
A/G [8]: 1.3
ALP [8]: 602 IU/L
ALT [8]: 41.4 IU/L
AST [8]: 76.2 IU/L
BUN [8]: 17.2 mg/dL
CRE [8]: 0.5 mg/dL
Ca [8]: 10.3 mg/dL
Cl [8]: 104.4 meq/L
DBIL [8]: 0.086 mg/dL
GLC [8]: 223.4 mg/dL
IP [8]: 7.2 mg/dL
K [8]: 4.1 meq/L
LDH [8]: 230.6 IU/L
Na [8]: 141 meq/L
PL [8]: 127.2 mg/dL
RALB [8]: 3.4 g/dL
TBIL [8]: 0.2 mg/dL
TC [8]: 64.8 mg/dL
TG [8]: 87.4 mg/dL
TP [8]: 6.1 g/dL
gamma-GTP [8]: 1.2 IU/L
